Experimental data as given in Sander's compilation of Henry's law constants (doi:10.1021/jf001510f).

assay: Henry solubility constant Hcp at 310 K (mol/(m3 Pa)); conditions: reference: van Ruth et al. (2001)

Row | SMILES | Henry solubility constant Hcp at 310 K
1 | CCCCCCC=O [heptanal] | 0.011
2 | CSC [dimethyl sulfide] | 0.0049
3 | CCCCCCO [1-hexanol] | 0.16
4 | CCCCCCCC=O [octanal] | 0.0088
5 | CCCCOC(C)=O [butyl ethanoate] | 0.017
6 | CCCCCCCC(C)O (stereo not given) [2-nonanol] | 0.069
7 | CCCCCCC(C)=O [2-octanone] | 0.018
8 | CCCCCC(C)=O [2-heptanone] | 0.025
9 | CCCC(C)O (stereo not given) [2-pentanol] | 0.23
10 | CCCC(=O)OCC [ethyl butanoate] | 0.016

Continued, values first:

Row | Henry solubility constant Hcp at 310 K | SMILES
11 | 0.015 | CCCCCCCCC(C)=O [2-decanone]
12 | 0.018 | CCCOC(C)=O [propyl ethanoate]
13 | 0.03 | CCOC(C)=O [ethyl ethanoate]
14 | 0.32 | CC(C)CCO [3-methyl-1-butanol]
15 | 0.65 | CCCO [1-propanol]
